Assay results reported in ChEMBL document CHEMBL1135383, “Increase of the adenallene anti-HIV activity in cell culture using its bis(tBuSATE) phosphotriester derivative” (Bioorg Med Chem Lett, 2002).

What was measured:
CEM-SS [1] = experiment: Effective concentration required to inhibit the replication of HIV-1 in CEMSS human T4 lymphoblastoid cell lines; format: functional, cell-based
CEM-SS [2] = experiment: Cytotoxic concentration required to inhibit the replication of HIV-1 in CEM-SS human T4 lymphoblastoid cell lines; format: functional
MT2 [3] = experiment: Effective concentration required to inhibit the replication of HIV-1 in MT-2 human T4 lymphoblastoid cell lines; format: functional, cell-based
MT2 [4] = experiment: Cytotoxic concentration required to inhibit the replication of HIV-1 in MT-2 human T4 lymphoblastoid cell lines; format: functional
MT4 [5] = experiment: Cytotoxic concentration required to inhibit the replication of HIV-1 in MT-4 human T4 lymphoblastoid cell lines; format: functional
MT4 [6] = experiment: Effective concentration required to inhibit the replication of HIV-1 in MT-4 human T4 lymphoblastoid cell lines; format: functional, cell-based

SMILES | EC50 (CEM-SS [1]) | CC50 (CEM-SS [2]) | EC50 (MT2 [3]) | CC50 (MT2 [4]) | CC50 (MT4 [5]) | EC50 (MT4 [6])
CC(C)(C)C(=O)SCCOP(=O)(OCC=C=Cn1cnc2c(N)ncnc21)OCCSC(=O)C(C)(C)C | 1.2 µM | > 10 µM | 6.4 µM | 28 µM | > 10 µM | 8.9 µM
Nc1ncnc2c1ncn2C=C=CCO (racemic) | 56 µM | > 100 µM | > 100 µM | > 100 µM | > 100 µM | > 100 µM
